The record followed here is US10766888B1, “HMOX1 inducers” (Mitobridge Inc., priority 2019, dated 2020).

In data set [1] the test system is Human Heme Oxygenase-1 (HMOX-1). As to the kind of experiment: ELISA assay to measure human heme oxygenase-1 (HMOX-1) in HepG2 lysate. The format is cell-based. In outline:
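HO-1 protein levels were read as fold change over DMSO-treated cells, with EC50 derived from these values. Quantitation used a chemiluminescent streptavidin-HRP capture ELISA, calibrated with an HO-1 standard series starting at 20 ng/ml, run at 20 °C. Samples were HepG2 lysates made with Triton X100/EDTA buffer and diluted 1:20.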
On the technique in general: ELISA stands for enzyme-linked immunosorbent assay.

A further data set deals with hERG channel (Homo sapiens, UniProt Q12809). As to the kind of experiment: hERG manual patch clamp assay. Format: cell-based. Conditions: HEK 293 cells stably expressing hERG channel, pH 7.35, 10 μM compound. The method, then:
Cell Lines and Cell Culture
HEK 293 cell line stably expressing hERG channel (Cat # K1236) was purchased from Invitrogen. The cells were cultured in 85% DMEM, 10% dialyzed FBS, 0.1 mM NEAA, 25 mM HEPES, 100 U/mL Penicillin-Streptomycin and 5 μg/mL Blasticidin and 400 μg/mL Geneticin. Cells were split using TrypLE™ Express about three times a week, and maintained between ˜40% to ˜80% confluence. Before the assay, the cells were transferred onto the coverslips at 5×10^5 cells/per 6 cm cell culture dish and induced with doxycycline at 1 μg/mL for 48 hours.
• 1) External solution (in mM): 132 NaCl, 4 KCl, 3 CaCl2, 0.5 MgCl2, 11.1 glucose, and 10 HEPES (pH adjusted to 7.35 with NaOH) • 2) Internal solution (in mM): 140 KCl, 2 MgCl2, 10 EGTA, 10 HEPES and 5 MgATP (pH adjusted to 7.35 with KOH) • 3) hERG currents were tested in presence of 10 μM compound concentration with final concentration of DMSO of 0.1%. Experimental Procedure • 1) Removed the coverslip from the cell culture dish and placed it on the microscope stage in bath chamber. • 2) Located a desirable cell using the 10× objective. Located the tip of the electrode under the microscope using the 10× objective by focusing above the plane of the cells. Once the tip was in focus, advanced the electrode downwards towards the cell using the coarse controls of the manipulator, while simultaneously moving the objective to keep the tip in focus. • 3) When directly over the cell, switched to the 40× objective and used the fine controls of the manipulator to approach the surface of the cell in small steps. • 4) Applied gentle suction through the side-port of the electrode holder to form a gigaohm seal. • 5) Used the Cfast to remove the capacity current that was in coincidence with the voltage step. Obtained the whole cell configuration by applying repetitive, brief, strong suction until the membrane patch ruptured. • 6) Set membrane potential to −60 mV at this point to ensure that hERG channels were not • open. The spikes of capacity current should then be cancelled using the Cslow on the amplifier. 7) Set holding potential to −90 mV for 500 ms; recorded current at 50 kHz and filtered at 10 kHz. Leaking current was tested at −80 mV for 500 ms. • 8) The hERG current was elicited by depolarizing at +30 mV for 4.8 seconds and then the voltage was taken back to −50 mV for 5.2 seconds to remove the inactivation and observe the deactivating tail current. The maximum amount of tail current size was used to determine hERG current amplitude. • 9) Recorded current for 120 seconds to assess the current stability. Only stable cells with recording parameters above threshold were applied for the compound administrations. • 10) Firstly vehicle control was applied to the cells to establish the baseline. […] In order to ensure the good performance of cultured cells and operations, the positive control, Dofetilide, with 5 dose concentration was also used to test the same batch of cells. Data Analysis
The following criteria were used to determine data acceptability. • 1) Initial seal resistance >1 GΩ; • 2) Leak currents <50% of the control peak tail currents at any time; • 3) The peak tail amplitude >250 pA; • 4) Membrane resistance Rm>500 MΩ; • 5) Access resistance (Ra)<10 MΩ; • 6) Apparent run-down of peak current <2.5% per min.
Data that met the above criteria for hERG current quality were further analyzed as the following steps. • 1) Percent hERG current inhibition was calculated using the following equation. • Note: PatchMaster or Clampfit software was used to extract the peak current from the original data.
[formula] • 2) The dose response curve of test compounds was plotted with percentage of hERG current inhibition against the concentration of test compounds using Graphpad Prism 6.0, and fit to a sigmoid dose-response curve with a variable slope.
On the technique in general: Block of hERG is tested as a sign of cardiac risk.

The nature of data set [2]: PD study: compound concentration in mouse liver. Format: in vivo, C57BL/6 mice. To be noted: male, C57BL/6, mouse, 50 mg/kg, 50 mpk oral; for concentration at 3 h: read-out: Liver Conc uM (3 h); for concentration at 6 h: read-out: Liver Conc uM (6 h). As to the method:
9-10 week old male C57BL/6 mice were dosed orally with 50 mg/kg of vehicle or compound formulated in 5% w/v tween 80 and 0.5% methyl cellulose. At indicated time points (3 and 6 hours or or 4 and 8 hours post-dosing as shown in the results below), whole blood was collected, animal was sacrificed and liver was collected. Blood samples were transferred to vials containing 4 μL of 10% w/v EDTA, centrifuged at 6000 rpm for 8 in below 10° C. to obtain plasma. Samples were frozen and later processed for HMOX1 protein levels as indicated below: […]

The nature of the next data set: Kinetic solubility. The format is physicochemical. Conditions: Dulbecco's phosphate buffer saline (DPBS), aqueous buffer, kinetic from dmso stock, DPBS pH 7.4, 25° C., 200 μM test compound. In outline: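 Compound from 10 mM DMSO stock diluted to 200 μM final in DPBS pH 7.4 and, separately, in DMSO, in duplicate. Shaken 16 h at 25 °C, then centrifuged 20 min at 25 °C. Supernatant analysed by HPLC.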

Where [3] appears, read: HepG2, human HMOX1, as listed in Table 5, read-out: HMOX1 EC50 h.
The mark [4] stands for this setting: human HMOX1 protein level in HepG2 lysate, * = average of 2 or more EC50 determinations, NA = Not Active, read-out: EC50.

SMILES strings stand for the structures. ≈ marks a conversion by molar mass, not a printed value. Like-named read-outs stand apart in the source and are kept apart here.

Chain of hERG channel (Q12809 whole entry): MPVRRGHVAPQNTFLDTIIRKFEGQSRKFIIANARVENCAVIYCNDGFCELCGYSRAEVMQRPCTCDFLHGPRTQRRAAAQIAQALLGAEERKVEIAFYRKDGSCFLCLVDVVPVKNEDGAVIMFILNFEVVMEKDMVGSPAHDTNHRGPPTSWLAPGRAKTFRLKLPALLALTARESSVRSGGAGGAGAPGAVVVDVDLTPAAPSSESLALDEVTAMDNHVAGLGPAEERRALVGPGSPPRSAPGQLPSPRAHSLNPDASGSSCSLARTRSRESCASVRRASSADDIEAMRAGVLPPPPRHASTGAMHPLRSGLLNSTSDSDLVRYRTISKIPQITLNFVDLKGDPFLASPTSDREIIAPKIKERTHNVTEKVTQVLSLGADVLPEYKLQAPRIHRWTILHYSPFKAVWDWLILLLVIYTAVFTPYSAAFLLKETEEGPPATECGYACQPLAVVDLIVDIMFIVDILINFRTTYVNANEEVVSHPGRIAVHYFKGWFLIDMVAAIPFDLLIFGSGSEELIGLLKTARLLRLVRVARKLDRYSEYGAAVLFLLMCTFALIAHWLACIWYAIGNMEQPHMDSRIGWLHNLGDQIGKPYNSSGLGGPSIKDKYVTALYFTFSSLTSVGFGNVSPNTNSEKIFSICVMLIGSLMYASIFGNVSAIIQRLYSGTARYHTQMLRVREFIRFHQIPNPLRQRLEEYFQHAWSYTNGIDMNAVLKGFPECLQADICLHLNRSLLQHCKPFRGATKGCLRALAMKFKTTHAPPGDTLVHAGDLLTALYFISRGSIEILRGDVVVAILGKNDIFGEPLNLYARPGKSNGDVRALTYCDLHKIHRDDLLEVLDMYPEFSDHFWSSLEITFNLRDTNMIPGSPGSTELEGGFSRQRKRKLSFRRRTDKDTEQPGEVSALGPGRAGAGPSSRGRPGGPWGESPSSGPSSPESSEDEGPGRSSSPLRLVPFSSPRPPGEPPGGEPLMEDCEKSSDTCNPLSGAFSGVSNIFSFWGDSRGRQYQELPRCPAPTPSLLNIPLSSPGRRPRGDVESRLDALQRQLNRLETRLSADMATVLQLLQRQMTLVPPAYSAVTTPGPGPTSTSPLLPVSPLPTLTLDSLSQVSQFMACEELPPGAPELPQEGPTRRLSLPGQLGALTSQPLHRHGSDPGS

In the case of `Cn1c(Nc2nc3cc(OC(F)(F)F)ccc3[nH]2)nc2cc(C(=O)O)ccc21` [Example 13, 1-methyl-2-((5-(trifluoromethoxy)-1H-benzo[d]imidazol-2-yl)amino)-1H-benzo[d]imidazole-5-carboxylic acid], the EC50 in data set [1] (setting [3]) and in data set [1] (setting [4]) was 1900 nM each time. For the same compound, at hERG channel, the inhibition at 10 µM was 34%. Also, the concentration at 3 h in data set [2] came to 63 µM. In addition, in data set [2], the concentration at 6 h came to 5.4 µM.

Turning to `Cn1c(Nc2nc3ccccc3o2)nc2cc(C(=O)NCCN3CCCC3)ccc21` [Example 28, 2-(benzo[d]oxazol-2-ylamino)-1-methyl-N-(2-(pyrrolidin-1-yl)ethyl)-1H-benzo[d]imidazole-5-carboxamide], in data set [1] (setting [4]), the EC50 amounted to 1600 nM. This compound gave a solubility at 16 h in “Kinetic solubility” of 11.3 µM (≈ 4.57 µg/mL). Also, the inhibition at 10 µM against hERG channel is 64%.

As to `Cn1c(Nc2nc3ccc(C(F)(F)F)cc3o2)nc2cc(C(=O)O)ccc21` [Example 31, 1-methyl-2-((6-(trifluoromethyl)benzo[d]oxazol-2-yl)amino)-1H-benzo[d]imidazole-5-carboxylic acid], the EC50 in data set [1] (setting [4]) worked out at 1100 nM. This compound displayed a solubility at 16 h in “Kinetic solubility” of 14.9 µM (≈ 5.61 µg/mL). In addition, testing at 10 µM against hERG channel gave an inhibition of 0%.

`Cn1c(Nc2nc3ccc(C(F)(F)F)cc3o2)nc2cc(C(=O)NCCOCCO)ccc21` [Example 34]: in data set [1] (setting [4]), the EC50 worked out at 800 nM. In addition, the solubility at 16 h in “Kinetic solubility” worked out at 8 µM (≈ 3.71 µg/mL). This compound registered an inhibition at 10 µM against hERG channel of 61%.

Turning to `Cn1c(Nc2nc3ccc(OC(F)(F)F)cc3o2)nc2cc(C(=O)O)ccc21` [Example 44, 1-methyl-2-((6-(trifluoromethoxy)benzo[d]oxazol-2-yl)amino)-1H-benzo[d]imidazole-5-carboxylic acid], the EC50 in data set [1] (setting [3]) came out at 2000 nM. In addition, the EC50 in data set [1] (setting [4]) turned out to be 1300 nM. The inhibition at 10 µM against hERG channel came to 15%. In data set [2], the concentration at 3 h was found to be 217 µM and the concentration at 6 h worked out at 162 µM.

In the case of `Cn1c(Nc2nc3ccc(OC(F)(F)F)cc3o2)nc2cc(C(=O)NCCO)ccc21` [Example 53, N-(2-hydroxyethyl)-1-methyl-2-((6-(trifluoromethoxy)benzo[d]oxazol-2-yl)amino)-1H-benzo[d]imidazole-5-carboxamide], the EC50 in data set [1] (setting [4]) turned out to be 1100 nM. In “Kinetic solubility”, this compound registered a solubility at 16 h of 7.3 µM (≈ 3.18 µg/mL). The same compound returned an inhibition at 10 µM at hERG channel of 70%.

Consider `COCCOc1ccc2nc(Nc3nc4cc(C(=O)NCCO)ccc4n3C)oc2c1` [Example 57, N-(2-hydroxyethyl)-2-((6-(2-methoxyethoxy)benzo[d]oxazol-2-yl)amino)-1-methyl-1H-benzo[d]imidazole-5-carboxamide], for which, in data set [1] (setting [4]), the half-maximal effective concentration (EC50) came out at 1200 nM. Further, the solubility at 16 h in “Kinetic solubility” is 11.2 µM (≈ 4.76 µg/mL). Moreover, at hERG channel, the inhibition at 10 µM is 15%.

Consider `COCCOc1ccc2nc(Nc3nc4cc(C(=O)NCCOCCO)ccc4n3C)oc2c1` [Example 58, N-(2-(2-hydroxyethoxy)ethyl)-2-((6-(2-methoxyethoxy)benzo[d]oxazol-2-yl)amino)-1-methyl-1H-benzo[d]imidazole-5-carboxamide], for which the EC50 in data set [1] (setting [4]) was determined as 1700 nM. Also, the solubility at 16 h in “Kinetic solubility” came to 7.7 µM (≈ 3.62 µg/mL). The compound further yielded an inhibition at 10 µM on hERG channel of 11%.

Consider `Cn1c(Nc2nc3ccc(OC(F)F)cc3o2)nc2cc(C(=O)O)ccc21` [Example 62, 2-((6-(difluoromethoxy)benzo[d]oxazol-2-yl)amino)-1-methyl-1H-benzo[d]imidazole-5-carboxylic acid], for which the 50% effective concentration (EC50) in data set [1] (setting [4]) amounted to 5100 nM. Besides, the solubility at 16 h in “Kinetic solubility” was found to be 16.2 µM (≈ 6.06 µg/mL). Further, at 10 µM the inhibition on hERG channel was 13%.

For `COCCNC(=O)c1ccc2c(c1)nc(Nc1nc3ccc(F)cc3o1)n2C` [Example 69, 2-((6-fluorobenzo[d]oxazol-2-yl)amino)-N-(2-methoxyethyl)-1-methyl-1H-benzo[d]imidazole-5-carboxamide], in data set [1] (setting [4]), the half-maximal effective concentration (EC50) came to 660 nM. The compound further showed a solubility at 16 h in the data set “Kinetic solubility” of under 5 µM. Moreover, the inhibition at 10 µM against hERG channel was determined as 38%.

As for `COCCn1c(Nc2nc3cc(OC(F)(F)F)ccc3[nH]2)nc2cc(C(=O)O)ccc21` [Example 75, 1-(2-methoxyethyl)-2-((5-(trifluoromethoxy)-1H-benzo[d]imidazol-2-yl)amino)-1H-benzo[d]imidazole-5-carboxylic acid], the 50% effective concentration (EC50) in data set [1] (setting [4]) came out at 370 nM. The same compound had a solubility at 16 h in the data set “Kinetic solubility” of 11.6 µM (≈ 5.05 µg/mL). The same compound showed an inhibition at 10 µM against hERG channel of 9%.

Regarding `CCn1c(Nc2nc3ccc(OC(F)(F)F)cc3o2)nc2cc(C(=O)NCCO)ccc21` [Example 86, 1-ethyl-N-(2-hydroxyethyl)-2-((6-(trifluoromethoxy)benzo[d]oxazol-2-yl)amino)-1H-benzo[d]imidazole-5-carboxamide], in data set [1] (setting [4]), the EC50 stood at 1300 nM. Besides, in the data set “Kinetic solubility”, the solubility at 16 h amounted to 7.1 µM (≈ 3.19 µg/mL). At hERG channel, the inhibition at 10 µM is 64%.

As for `CN(C)CC(=O)NCCONC(=O)c1ccc2c(c1)nc(Nc1nc3ccccc3o1)n2C` [Example 121, 2-(benzo[d]oxazol-2-ylamino)-N-(2-(2-(dimethylamino)acetamido)ethoxy)-1-methyl-1H-benzo[d]imidazole-5-carboxamide], the EC50 in data set [1] (setting [4]) was 1400 nM. For the same compound, in “Kinetic solubility”, the solubility at 16 h turned out to be 9 µM (≈ 4.06 µg/mL). The compound further had an inhibition at 10 µM at hERG channel of 66%.

In the case of `CN(C)CCONC(=O)c1ccc2c(c1)nc(Nc1nc3ccc(C(F)(F)F)cc3o1)n2C` [Example 122, N-(2-(dimethylamino)ethoxy)-1-methyl-2-((6-(trifluoromethyl)benzo[d]oxazol-2-yl)amino)-1H-benzo[d]imidazole-5-carboxamide], the 50% effective concentration (EC50) in data set [1] (setting [4]) is 400 nM. In addition, the solubility at 16 h in “Kinetic solubility” was determined as 5.1 µM (≈ 2.36 µg/mL). The same compound had an inhibition at 10 µM against hERG channel of 87%.

Take `COCCOc1ccc2nc(Nc3nc4cc(C(=O)NOCCO)ccc4n3C)oc2c1` [Example 128, N-(2-hydroxyethoxy)-2-((6-(2-methoxyethoxy)benzo[d]oxazol-2-yl)amino)-1-methyl-1H-benzo[d]imidazole-5-carboxamide]: the EC50 in data set [1] (setting [4]) is 1200 nM. This compound also gave a solubility at 16 h in “Kinetic solubility” of 4.7 µM (≈ 2.07 µg/mL). Besides, at hERG channel, testing at 10 µM gave an inhibition of 18%.

As to `Cn1c(Nc2nc3ccc(N4CCCC4)cc3o2)nc2cc(C(=O)NCCOCCO)ccc21` [Example 137, N-(2-(2-hydroxyethoxy)ethyl)-1-methyl-2-((6-(pyrrolidin-1-yl)benzo[d]oxazol-2-yl)amino)-1H-benzo[d]imidazole-5-carboxamide], the EC50 in data set [1] (setting [4]) was determined as 1300 nM. Also, the solubility at 16 h in the data set “Kinetic solubility” worked out at 6.9 µM (≈ 3.21 µg/mL). Further, 10 µM produced 18% inhibition against hERG channel.

By EC50 is commonly meant the concentration giving half of the maximal effect. In general, inhibition refers to how much of the control response was suppressed. Low values mean little suppression, high ones strong suppression. One may read the solubility as the concentration that dissolves in the medium under given conditions. Lower therefore signals a poorly soluble substance.
